Results reported in ChEMBL document CHEMBL1151023, “1,1-Dicyano-2-substituted ethylenes: A new class of glucose uptake inhibitors in antifilarial chemotherapy” (1997).

Assays:
Format in all cases: functional
Acanthocheilonema viteae [1] = assay: Effect of compound on glucose uptake in Acanthocheilonema viteae at 10 uM concentration (p>0.05)
Acanthocheilonema viteae [2] = assay: Effect of compound on lactate produced in Acanthocheilonema viteae at 10 uM concentration (p>0.05)
Acanthocheilonema viteae [3] = assay: Effect of compound on ATP content in Acanthocheilonema viteae at 10 uM concentration (p>0.05)
Mastomys coucha [4] = assay: Tested for in vivo antifilarial activity against Acanthocheilonema viteae macrofilariae infection in Mastomys coucha at 50 mg/kgx 5 days after ip administration, expressed as % reduction in parasite load; conditions: dose 50 mg/kg; route intraperitoneal
Mastomys coucha [5] = assay: Tested for in vivo antifilarial activity against Acanthocheilonema viteae microfilariae infection in Mastomys coucha at 50 mg/kgx 5 days after ip administration, expressed as % reduction in parasite load; conditions: dose 50 mg/kg; route intraperitoneal
Acanthocheilonema viteae [6] = assay: Effect of compound on lactate produced in Acanthocheilonema viteae at 10 uM concentration(p>0.05)
Mastomys coucha [7] = assay: Tested for in vivo antifilarial activity against Litomosoides carinii macrofilariae infection in Mastomys coucha at 350 mg/kgx 5 days after ip administration, expressed as % reduction in parasite load; conditions: dose 350 mg/kg; route intraperitoneal
Mastomys coucha [8] = assay: Tested for in vivo antifilarial activity against Litomosoides carinii macrofilariae infection in Mastomys coucha at 6 mg/kgx 5 days after ip administration, expressed as % reduction in parasite load; conditions: dose 6 mg/kg; route intraperitoneal
Mastomys coucha [9] = assay: Tested for in vivo antifilarial activity against Litomosoides carinii microfilariae infection in Mastomys coucha at 350 mg/kgx 5 days after ip administration, expressed as % reduction in parasite load; conditions: dose 350 mg/kg; route intraperitoneal
Mastomys coucha [10] = assay: Tested for in vivo antifilarial activity against Litomosoides carinii microfilariae infection in Mastomys coucha at 6 mg/kgx 5 days after ip administration, expressed as % reduction in parasite load; conditions: dose 6 mg/kg; route intraperitoneal
Mastomys coucha [11] = assay: Tested for in vivo antifilarial activity against A. viteae microfilariae infection in Mastomys coucha at 50 mg/kgx 5 days after ip administration, expressed as % reduction in parasite load; conditions: dose 50 mg/kg; route intraperitoneal
Acanthocheilonema viteae [12] = assay: Effect of compound on glucose uptake in Acanthocheilonema viteae at 10 uM concentration(p<0.005)
Acanthocheilonema viteae [13] = assay: Effect of compound on lactate produced in Acanthocheilonema viteae at 10 uM concentration(p<0.005)
Acanthocheilonema viteae [14] = assay: Effect of compound on ATP content in Acanthocheilonema viteae at 10 uM concentration (p<0.005)
Acanthocheilonema viteae [15] = assay: Effect of compound on glucose uptake in Acanthocheilonema viteae at 10 uM concentration (p<0.005)
Acanthocheilonema viteae [16] = assay: Effect of compound on lactate produced in Acanthocheilonema viteae at 10 uM concentration (p<0.005)
Mastomys coucha [17] = assay: Tested for in vivo antifilarial activity against Litomosoides carinii macrofilariae infection in Mastomys coucha at 30 mg/kgx 5 days after ip administration, expressed as % reduction in parasite load with 30% sterilization of female worms; conditions: dose 30 mg/kg; route intraperitoneal
Mastomys coucha [18] = assay: Tested for in vivo antifilarial activity against Litomosoides carinii microfilariae infection in Mastomys coucha at 30 mg/kgx 5 days after ip administration, expressed as % reduction in parasite load with 30% sterilization of female worms; conditions: dose 30 mg/kg; route intraperitoneal
Acanthocheilonema viteae [19] = assay: Effect of compound on glucose uptake in Acanthocheilonema viteae at 10 uM concentration (p<0.05)
Acanthocheilonema viteae [20] = assay: Effect of compound on lactate produced in Acanthocheilonema viteae at 10 uM concentration (p<0.05)

Row | SMILES | Glucose uptake (Acanthocheilonema viteae [1]) | Lactate produced (Acanthocheilonema viteae [2]) | ATP content (Acanthocheilonema viteae [3]) | Reduction (Mastomys coucha [4]) | Reduction (Mastomys coucha [5]) | ATP content (Acanthocheilonema viteae [14]) | further results
1 | N#CC(C#N)=CN(CCO)CCO | 204 nM/h (mg of worm) | 405 nM/h (mg of worm) | 49.3 pM (mg of protein)-1 | 0% | 76% |  | 
2 | CCN(CC)C(=O)N1CCN(C)CC1.O=C(O)CC(O)(CC(=O)O)C(=O)O [DIETHYLCARBAMAZINE CITRATE] | 256 nM/h (mg of worm) |  | 55.6 pM (mg of protein)-1 |  |  |  | Lactate produced (Acanthocheilonema viteae [6]): 461 nM/h (mg of worm); Reduction (Mastomys coucha [7]): 0%; Reduction (Mastomys coucha [8]): 0%; Reduction (Mastomys coucha [9]): 90%; Reduction (Mastomys coucha [10]): 98%
3 | N#CC(C#N)=CNc1ccccc1 | 189 nM/h (mg of worm) | 443 nM/h (mg of worm) | 53.5 pM (mg of protein)-1 | 0% |  |  | Reduction (Mastomys coucha [11]): 47%
4 | N#CC(C#N)=CNc1ccc(F)cc1 |  |  |  | 0% | 91% | 16.9 pM (mg of protein)-1 | Glucose uptake (Acanthocheilonema viteae [12]): 56 nM/h (mg of worm); Lactate produced (Acanthocheilonema viteae [13]): 222 nM/h (mg of worm)
5 | N#CC(C#N)=CN1CCN(c2ccccn2)CC1 |  |  |  |  |  | 37.1 pM (mg of protein)-1 | Glucose uptake (Acanthocheilonema viteae [15]): 105 nM/h (mg of worm); Lactate produced (Acanthocheilonema viteae [16]): 157 nM/h (mg of worm); Reduction (Mastomys coucha [17]): 60%; Reduction (Mastomys coucha [18]): 60%
6 | N#CC(C#N)=CNCCO |  | 343 nM/h (mg of worm) | 47.8 pM (mg of protein)-1 | 0% | 82% |  | Glucose uptake (Acanthocheilonema viteae [19]): 164 nM/h (mg of worm)
7 | N#CC(C#N)=CN1CCN(C=C(C#N)C#N)CC1 |  |  |  | 81% | 0% | 25.7 pM (mg of protein)-1 | Glucose uptake (Acanthocheilonema viteae [19]): 327 nM/h (mg of worm); Lactate produced (Acanthocheilonema viteae [20]): 258 nM/h (mg of worm)
